The target in one assay is T1, human CA-IX (Homo sapiens, UniProt Q16790).
T1 construct: purchased Acro CA9-H82E3
Nature of the assay: Surface Plasmon Resonance (SPR) binding kinetics to recombinant human CA-IX (Biacore 8K, single-cycle kinetics, 1:1 binding model). Particulars: for Kd: SPR, 25° C., pH 7.4, read-out: CAIX KD. The method in brief:
(§1)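 Proteins were captured on streptavidin chips at 1200-1800 RU (CA-IX 180 s, CA-XII 75 s injection). Compound was run at 9 concentrations (100-0.39 nM) in PBS-P+ pH 7.4 with 1% DMSO, 120 s association, 1200 s dissociation, 25° C. Rate constants came from reference- and DMSO-corrected curves.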
Background: SPR reads the build-up and loss of mass on a sensor chip optically.

A further assay concerns the target T2, human CA-XII (Homo sapiens, UniProt O43570).
T2 construct: purchased Creative BioMart CA12-261H
Nature of the assay: Surface Plasmon Resonance (SPR) binding kinetics to recombinant human CA-XII (Biacore 8K, single-cycle kinetics, 1:1 binding model). To be noted: pH 7.4, read-out: CAXII KD. In short, it runs like this:
as §1

Each structure is given as a SMILES string. Read-outs that look alike come from different tables or passages of the source.

T2 sequence (O43570 25-354): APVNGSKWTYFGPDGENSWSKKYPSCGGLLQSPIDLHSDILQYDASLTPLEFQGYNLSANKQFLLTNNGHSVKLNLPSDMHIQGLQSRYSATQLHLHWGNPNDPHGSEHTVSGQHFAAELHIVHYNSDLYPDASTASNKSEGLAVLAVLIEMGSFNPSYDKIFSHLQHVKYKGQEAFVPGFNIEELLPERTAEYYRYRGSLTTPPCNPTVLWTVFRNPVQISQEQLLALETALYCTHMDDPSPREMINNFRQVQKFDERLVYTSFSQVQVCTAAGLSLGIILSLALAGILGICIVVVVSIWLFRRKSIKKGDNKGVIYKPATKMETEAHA

A word on the Kd: it is the concentration at which binding is half-saturated. For the compound `CC(CCC(=O)N[C@@H](CC(=O)N[C@@H](CC(=O)N1CCN(C(=O)CN2CCN(CC(=O)O)CCN(CC(=O)O)CCN(CC(=O)O)CC2)C[C@H]1C(=O)NCCn1cc(C23CC(C(=O)Nc4nnc(S(N)(=O)=O)s4)(C2)C3)nn1)C(=O)O)C(=O)O)(c1ccc(O)cc1)c1ccc(O)cc1.[Lu+3]` [Compound 107.38], the dissociation constant (Kd) was under 1 nM at human CA-IX (Chelated Metal: Lu-175) and over 10 nM on human CA-XII (Chelated Metal: Lu-175, 25° C.).
The matching figures for `CC(CCC(=O)N[C@@H](CC(=O)N[C@@H](CCC(=O)N1CCN(C(=O)CN2CCN(CC(=O)O)CCN(CC(=O)O)CCN(CC(=O)O)CC2)C[C@H]1C(=O)NCCn1cc(C23CC(C(=O)Nc4nnc(S(N)(=O)=O)s4)(C2)C3)nn1)C(=O)O)C(=O)O)(c1ccc(O)cc1)c1ccc(O)cc1.[Lu+3]` [Compound 107.39]: under 1 nM and over 10 nM.
The matching figures for `CCC(CC)Nc1c(F)c(S(N)(=O)=O)c(F)c(F)c1S(=O)(=O)CCOCc1cn(CCNC(=O)[C@H]2CN(C(=O)CN3CCN(CC(=O)O)CCN(CC(=O)O)CCN(CC(=O)O)CC3)CCN2C(=O)C[C@H](NC(=O)[C@@H]2COCCN2C(=O)CCCc2ccc(O)cc2)C(=O)O)nn1.[Lu+3]` [Compound 107.41]: 1 to 2.5 nM and over 10 nM.
The matching figures for `C[C@H](Nc1c(F)c(S(N)(=O)=O)c(F)c(F)c1S(=O)(=O)CCOCc1cn(CCNC(=O)[C@H]2CN(C(=O)CN3CCN(CC(=O)O)CCN(CC(=O)O)CCN(CC(=O)O)CC3)CCN2C(=O)C[C@H](NC(=O)[C@@H]2COCCN2C(=O)CCCc2ccc(O)cc2)C(=O)O)nn1)C1CCCC1.[Lu+3]` [Compound 107.42]: under 1 nM and 2.5 to 10 nM.
Consider `CC(CCCC(=O)N1CCOC[C@H]1C(=O)N[C@@H](CC(=O)N1CCN(C(=O)CN2CCN(CC(=O)O)CCN(CC(=O)O)CCN(CC(=O)O)CC2)C[C@@H]1C(=O)NCCn1cc(C23CC(C(=O)Nc4nnc(S(N)(=O)=O)s4)(C2)C3)nn1)C(N)=O)(c1ccc(O)cc1)c1ccc(O)cc1.[Lu+3]` [Compound 107.44], for which the Kd is under 1 nM on human CA-IX (Chelated Metal: Lu-175) and over 10 nM on human CA-XII (Chelated Metal: Lu-175, 25° C.).
The matching figures for `NS(=O)(=O)c1c(F)c(F)c(S(=O)(=O)CCOCc2cn(CCCNC(=O)[C@@H]3CN(C(=O)CN4CCN(CC(=O)O)CCN(CC(=O)O)CCN(CC(=O)O)CC4)CCN3C(=O)CNC(=O)C3(C(=O)O)CCN(C(=O)CCCCc4ccc(O)cc4)CC3)nn2)c(NC2CCCCCCC2)c1F.[Lu+3]` [Compound 107.45]: under 1 nM and 2.5 to 10 nM.
Turning to `CC(CCC(=O)N[C@@H](CC(=O)N[C@@H](CC(=O)N1CCN(C(=O)CN2CCN(CC(=O)O)CCN(CC(=O)O)CCN(CC(=O)O)CC2)C[C@H]1C(=O)NCCn1cc(C23CC(C(=O)Nc4nnc(S(N)(=O)=O)s4)(C2)C3)nn1)C(N)=O)C(N)=O)(c1ccc(O)cc1)c1ccc(O)cc1.[Lu+3]` [Compound 107.47], the Kd on human CA-IX (Chelated Metal: Lu-175) was 1 to 2.5 nM; at human CA-XII (Chelated Metal: Lu-175, 25° C.), over 10 nM.
The matching figures for `CC(CCCC(=O)N1CCOC[C@H]1C(=O)N[C@@H](CC(=O)N1CCN(C(=O)CN2CCN(CC(=O)O)CCN(CC(=O)O)CCN(CC(=O)O)CC2)C[C@H]1C(=O)NCCn1cc(C23CC(c4cn5nc(S(N)(=O)=O)sc5n4)(C2)C3)nn1)C(=O)O)(c1ccc(O)cc1)c1ccc(O)cc1.[Lu+3]` [Compound 107.48]: under 1 nM and 1 to 2.5 nM.
The matching figures for `CC(CCCC(=O)N1CCC(C(N)=O)(C(=O)NCC(=O)N2CCN(C(=O)CN3CCN(CC(=O)O)CCN(CC(=O)O)CCN(CC(=O)O)CC3)C[C@H]2C(=O)NCCn2cc(COc3ccc4nc(S(N)(=O)=O)sc4c3)nn2)CC1)(c1ccc(O)cc1)c1ccc(O)cc1.[Lu+3]` [Compound 107.49]: under 1 nM and over 10 nM.
On to `CC(CCC(=O)N[C@@H](CC(=O)N[C@@H](CC(=O)N1CCN(C(=O)CN2CCN(CC(=O)O)CCN(CC(=O)O)CCN(CC(=O)O)CC2)C[C@H]1C(=O)NCCn1cc(C23CC(C(=O)Nc4nnc(S(N)(=O)=O)s4)(C2)C3)nn1)C(=O)O)C(N)=O)(c1ccc(O)cc1)c1ccc(O)cc1.[Lu+3]` [Compound 107.50], for which the Kd at human CA-IX (Chelated Metal: Lu-175) is under 1 nM; at human CA-XII (Chelated Metal: Lu-175, 25° C.), over 10 nM.
On to `CC(CCCC(=O)N1CCC(CN)(C(=O)NCC(=O)N2CCN(C(=O)CN3CCN(CC(=O)O)CCN(CC(=O)O)CCN(CC(=O)O)CC3)C[C@@H]2C(=O)NCCn2cc(C34CC(C(=O)Nc5nnc(S(N)(=O)=O)s5)(C3)C4)nn2)CC1)(c1ccc(O)cc1)c1ccc(O)cc1.[Lu+3]` [Compound 107.51], for which the Kd was 1 to 2.5 nM at human CA-IX (Chelated Metal: Lu-175) and over 10 nM on human CA-XII (Chelated Metal: Lu-175, 25° C.).
As for `NC(=O)C1(C(=O)NCC(=O)N2CCN(C(=O)CN3CCN(CC(=O)O)CCN(CC(=O)O)CCN(CC(=O)O)CC3)C[C@H]2C(=O)NCCn2cc(C34CC(C(=O)Nc5nnc(S(N)(=O)=O)s5)(C3)C4)nn2)CCN(C(=O)CCn2nc(-c3ccc(O)cc3)c3ccc(O)cc32)CC1.[Lu+3]` [Compound 107.52], the Kd was 1 to 2.5 nM on human CA-IX (Chelated Metal: Lu-175) and over 10 nM at human CA-XII (Chelated Metal: Lu-175, 25° C.).
On to `CC(CCCC(=O)N1CCC(C(N)=O)(C(=O)NCC(=O)N2CCN(C(=O)CN3CCN(CC(=O)O)CCN(CC(=O)O)CCN(CC(=O)O)CC3)C[C@H]2C(=O)NCCn2cc(C34CC(c5cn6nc(S(N)(=O)=O)sc6n5)(C3)C4)nn2)CC1)(c1ccc(O)cc1)c1ccc(O)cc1` [Compound 107.53], for which the Kd is under 1 nM at human CA-IX (Chelated Metal: None) and 2.5 to 10 nM on human CA-XII (Chelated Metal: None, 25° C.). Besides, on human CA-IX (KD ratio CAXII/CAIX, Chelated Metal: None), the “Ratio (CAXII/CAIX)” value is “**** (50 < ****)”.
Take `CCCCNc1c(F)c(S(N)(=O)=O)c(F)c(F)c1S(=O)(=O)CCOCc1cn(CCNC(=O)[C@H]2CN(C(=O)CN3CCN(CC(=O)O)CCN(CC(=O)O)CCN(CC(=O)O)CC3)CCN2C(=O)C[C@H](NC(=O)[C@@H]2COCCN2C(=O)CCCc2ccc(O)cc2)C(=O)O)nn1.[Lu+3]` [Compound 107.54]: the Kd on human CA-IX (Chelated Metal: Lu-175) is 2.5 to 10 nM; on human CA-XII (Chelated Metal: Lu-175, 25° C.) it was over 10 nM.
The matching figures for `CC(CCC(=O)N[C@@H](CC(=O)N[C@@H](CNC(=O)N1CCN(C(=O)CN2CCN(CC(=O)O)CCN(CC(=O)O)CCN(CC(=O)O)CC2)C[C@H]1C(=O)NCCn1cc(C23CC(C(=O)Nc4nnc(S(N)(=O)=O)s4)(C2)C3)nn1)C(=O)O)C(=O)O)(c1ccc(O)cc1)c1ccc(O)cc1.[Lu+3]` [Compound 107.55]: under 1 nM and 2.5 to 10 nM.
The matching figures for `CC(CCNC(=O)N1CCC(C(N)=O)(C(=O)NCC(=O)N2CCN(C(=O)CN3CCN(CC(=O)O)CCN(CC(=O)O)CCN(CC(=O)O)CC3)C[C@H]2C(=O)NCCn2cc(C34CC(C(=O)Nc5nnc(S(N)(=O)=O)s5)(C3)C4)nn2)CC1)(c1ccc(O)cc1)c1ccc(O)cc1.[Lu+3]` [Compound 107.56]: 1 to 2.5 nM and over 10 nM.
Take `CC(CCOC(=O)N1CCC(C(N)=O)(C(=O)NCC(=O)N2CCN(C(=O)CN3CCN(CC(=O)O)CCN(CC(=O)O)CCN(CC(=O)O)CC3)C[C@H]2C(=O)NCCn2cc(C34CC(C(=O)Nc5nnc(S(N)(=O)=O)s5)(C3)C4)nn2)CC1)(c1ccc(O)cc1)c1ccc(O)cc1.[Lu+3]` [Compound 107.57]: the Kd at human CA-IX (Chelated Metal: Lu-175) is 1 to 2.5 nM; on human CA-XII (Chelated Metal: Lu-175, 25° C.), over 10 nM.
Turning to `CC(CCCC(=O)N1CCC(C(N)=O)(C(=O)NCC(=O)N2CCN(C(=O)CN3CCN(CC(=O)O)CCN(CC(=O)O)CCN(CC(=O)O)CC3)C[C@H]2C(=O)NCCn2nnc(C34CC(C(=O)Nc5nnc(S(N)(=O)=O)s5)(C3)C4)c2C(=O)O)CC1)(c1ccc(O)cc1)c1ccc(O)cc1.[Lu+3]` [Compound 107.58], the Kd at human CA-IX (Chelated Metal: Lu-175) was under 1 nM; on human CA-XII (Chelated Metal: Lu-175, 25° C.) it was over 10 nM.
On to `CC(CCCC(=O)N1CCC(C(N)=O)(C(=O)NCC(=O)N2CCN(C(=O)CN3CCN(CC(=O)O)CCN(CC(=O)O)CCN(CC(=O)O)CC3)C[C@@H]2C(=O)NCCn2nnc(C34CC(C(=O)Nc5nnc(S(N)(=O)=O)s5)(C3)C4)c2C(=O)O)CC1)(c1ccc(O)cc1)c1ccc(O)cc1.[Lu+3]` [Compound 107.59], for which the Kd on human CA-IX (Chelated Metal: Lu-175) was under 1 nM; on human CA-XII (Chelated Metal: Lu-175, 25° C.) it was over 10 nM.
For `CC(CCC(=O)N[C@@H](CC(=O)N[C@@H](CC(=O)N1CCN(C(=O)CN2CCN(CC(=O)O)CCN(CC(=O)O)CCN(CC(=O)O)CC2)C[C@H]1C(=O)NCCn1nnc(C23CC(C(=O)Nc4nnc(S(N)(=O)=O)s4)(C2)C3)c1C(=O)O)C(=O)O)C(=O)O)(c1ccc(O)cc1)c1ccc(O)cc1.[Lu+3]` [Compound 107.60], the equilibrium dissociation constant (Kd) on human CA-IX (Chelated Metal: Lu-175) is under 1 nM; at human CA-XII (Chelated Metal: Lu-175, 25° C.), 2.5 to 10 nM.
Consider `CC(CCC(=O)N[C@@H](CC(=O)N[C@@H](CC(=O)N1CCN(C(=O)CN2CCN(CC(=O)O)CCN(CC(=O)O)CCN(CC(=O)O)CC2)C[C@H]1C(=O)NCCn1nnc(C(=O)O)c1C12CC(C(=O)Nc3nnc(S(N)(=O)=O)s3)(C1)C2)C(=O)O)C(=O)O)(c1ccc(O)cc1)c1ccc(O)cc1.[Lu+3]` [Compound 107.61], for which the equilibrium dissociation constant (Kd) at human CA-IX (Chelated Metal: Lu-175) was 1 to 2.5 nM; on human CA-XII (Chelated Metal: Lu-175, 25° C.), over 10 nM.
As to `CC(CCCC(=O)N1CCC(C(N)=O)(C(=O)NCC(=O)N2CCN(C(=O)CN3CCN(CC(=O)O)CCN(CC(=O)O)CCN(CC(=O)O)CC3)C[C@H]2C(=O)NCCn2cc(C34CC(C(=O)Nc5nnc(S(N)(=O)=O)s5)(C3)C4)nn2)CC1)(c1ccc(O)cc1)c1ccc(O)cc1.[Lu+3]` [Compound 107], the Kd at human CA-IX (Chelated Metal: Lu-175) is under 1 nM; at human CA-XII (Chelated Metal: Lu-175, 25° C.), over 10 nM.
The matching figures for `NS(=O)(=O)c1nnc(NC(=O)C23CC(c4cn(CCNC(=O)[C@H]5CN(C(=O)CN6CCN(CC(=O)O)CCN(CC(=O)O)CCN(CC(=O)O)CC6)CCN5C(=O)[C@@H]5COCCN5C(=O)CCc5n[nH]c6ccccc56)nn4)(C2)C3)s1.[Lu+3]` [Compound 108.1]: 2.5 to 10 nM and over 10 nM.
The matching figures for `CC(CCCC(=O)N1CCOC[C@H]1C(=O)N[C@@H](CC(=O)N1CCN(C(=O)CN2CCN(CC(=O)O)CCN(CC(=O)O)CCN(CC(=O)O)CC2)C[C@@H]1C(=O)NCCn1cc(C23CC(C(=O)Nc4nnc(S(N)(=O)=O)s4)(C2)C3)nn1)C(=O)O)(c1ccc(O)cc1)c1ccc(O)cc1.[Lu+3]` [Compound 108.2]: under 1 nM and over 10 nM.

Values taken from US20260325685A1, “Radiopharmaceutical Compositions Targeting Carbonic Anhydrase IX and Uses Thereof” (RayzeBio, Inc., priority 2023, published 2026).
